# Laboratory results as given in the NIST ThermoML archive (doi:10.1016/j.jct.2008.08.007).
# Numbers after ± are expanded uncertainties.
# Experiment: molar heat capacity at constant pressure
# Settings: 101.33 kPa, Crystal, Small sample (50 mg) DSC
Structure (SMILES),molar heat capacity at constant pressure (288.15 K),molar heat capacity at constant pressure (293.15 K),molar heat capacity at constant pressure (298.15 K),molar heat capacity at constant pressure (303.15 K),molar heat capacity at constant pressure (308.15 K),molar heat capacity at constant pressure (313.15 K),molar heat capacity at constant pressure (318.15 K),molar heat capacity at constant pressure (323.15 K),molar heat capacity at constant pressure (328.15 K),molar heat capacity at constant pressure (333.15 K),molar heat capacity at constant pressure (338.15 K),molar heat capacity at constant pressure (343.15 K),molar heat capacity at constant pressure (348.15 K),molar heat capacity at constant pressure (353.15 K),molar heat capacity at constant pressure (358.15 K)
O=CC[C@H](O)[C@H](O)CO [2-deoxy-D-erythropentose],171.9 ± 4.5 J/K/mol,167.6 ± 3.4 J/K/mol,162 ± 3.2 J/K/mol,163.6 ± 3.9 J/K/mol,171.7 ± 3.7 J/K/mol,178.4 ± 3.6 J/K/mol,184.1 ± 4.8 J/K/mol,197.4 ± 3.7 J/K/mol,222 ± 4.6 J/K/mol,–,–,–,–,–,–
OC[C@H]1OC(O)C[C@@H](O)[C@@H]1O (stereo partly drawn) [2-deoxy-D-glucose],189.6 ± 6 J/K/mol,195.8 ± 6.4 J/K/mol,200.2 ± 5.9 J/K/mol,201 ± 5.9 J/K/mol,204.5 ± 6 J/K/mol,206.9 ± 6.1 J/K/mol,209 ± 5.6 J/K/mol,213.6 ± 5.2 J/K/mol,214.7 ± 5.3 J/K/mol,218.4 ± 5.5 J/K/mol,224.9 ± 5.4 J/K/mol,226.4 ± 4 J/K/mol,233 ± 3.9 J/K/mol,235.4 ± 4.2 J/K/mol,244 ± 4.3 J/K/mol
OC[C@H]1O[C@@H](O[C@H]2[C@H](O)[C@@H](O)[C@H](O)O[C@@H]2CO)[C@H](O)[C@@H](O)[C@@H]1O [D-cellobiose],407.8 ± 7.4 J/K/mol,431 ± 7.6 J/K/mol,436.1 ± 8.5 J/K/mol,445 ± 8.3 J/K/mol,443.1 ± 7.8 J/K/mol,446.9 ± 8.6 J/K/mol,448.7 ± 7.8 J/K/mol,463.2 ± 8.5 J/K/mol,463.5 ± 7.8 J/K/mol,473.1 ± 7.9 J/K/mol,481.1 ± 8.8 J/K/mol,490.7 ± 8.4 J/K/mol,503.2 ± 8.5 J/K/mol,515.8 ± 8.8 J/K/mol,534.8 ± 9 J/K/mol
OC[C@H]1O[C@@](CO)(O[C@H]2O[C@H](CO)[C@@H](O)[C@H](O)[C@H]2O)[C@@H](O)[C@@H]1O [D-sucrose],408.5 ± 7.6 J/K/mol,416.6 ± 6.9 J/K/mol,424.3 ± 7 J/K/mol,429.4 ± 7.7 J/K/mol,437.5 ± 8.2 J/K/mol,445.5 ± 8.2 J/K/mol,451 ± 8 J/K/mol,466.2 ± 8 J/K/mol,472.6 ± 8 J/K/mol,482.5 ± 8.5 J/K/mol,490.3 ± 8.1 J/K/mol,498.8 ± 7.8 J/K/mol,506.7 ± 7.9 J/K/mol,513.9 ± 8.2 J/K/mol,522 ± 8.1 J/K/mol

# More lines, now with the values ahead:
molar heat capacity at constant pressure (288.15 K),molar heat capacity at constant pressure (293.15 K),molar heat capacity at constant pressure (298.15 K),molar heat capacity at constant pressure (303.15 K),molar heat capacity at constant pressure (308.15 K),molar heat capacity at constant pressure (313.15 K),molar heat capacity at constant pressure (318.15 K),molar heat capacity at constant pressure (323.15 K),molar heat capacity at constant pressure (328.15 K),molar heat capacity at constant pressure (333.15 K),molar heat capacity at constant pressure (338.15 K),molar heat capacity at constant pressure (343.15 K),molar heat capacity at constant pressure (348.15 K),molar heat capacity at constant pressure (353.15 K),molar heat capacity at constant pressure (358.15 K),Structure (SMILES)
203.3 ± 3.5 J/K/mol,210.7 ± 3.6 J/K/mol,213.7 ± 4.9 J/K/mol,217.5 ± 3.8 J/K/mol,222.3 ± 4.8 J/K/mol,227.1 ± 4.5 J/K/mol,229.4 ± 3.9 J/K/mol,235.6 ± 5.1 J/K/mol,236.8 ± 4.6 J/K/mol,242.8 ± 4.4 J/K/mol,247 ± 4 J/K/mol,251.2 ± 4.8 J/K/mol,254.7 ± 4.6 J/K/mol,257.5 ± 4.3 J/K/mol,265.1 ± 4.8 J/K/mol,O=C[C@H](O)[C@@H](O)[C@@H](O)[C@H](O)CO [(+)-galactose]
220.3 ± 7.5 J/K/mol,223.6 ± 7.5 J/K/mol,227.7 ± 8.4 J/K/mol,233.3 ± 7.2 J/K/mol,236.9 ± 7.6 J/K/mol,242.4 ± 7.6 J/K/mol,247.3 ± 7.8 J/K/mol,251.5 ± 8 J/K/mol,251.8 ± 7.9 J/K/mol,255.1 ± 8.6 J/K/mol,259.6 ± 7.9 J/K/mol,260.9 ± 7.6 J/K/mol,266.4 ± 8.1 J/K/mol,275.3 ± 8.7 J/K/mol,290.4 ± 7.9 J/K/mol,O=C(CO)[C@@H](O)[C@H](O)[C@H](O)CO [D-fructose]
188.7 ± 6.2 J/K/mol,200.7 ± 6.1 J/K/mol,206.6 ± 6.1 J/K/mol,215 ± 5.5 J/K/mol,223.3 ± 6.8 J/K/mol,228.2 ± 5.6 J/K/mol,231.6 ± 5.6 J/K/mol,234.5 ± 5.7 J/K/mol,236.5 ± 6.7 J/K/mol,242.1 ± 5.3 J/K/mol,245.2 ± 5.4 J/K/mol,249 ± 5.6 J/K/mol,252.4 ± 6.3 J/K/mol,254.1 ± 6.3 J/K/mol,260.2 ± 7 J/K/mol,O=C[C@@H](O)[C@@H](O)[C@H](O)[C@H](O)CO [D-mannose]
171.3 ± 4.2 J/K/mol,179.4 ± 3.5 J/K/mol,183.2 ± 3.7 J/K/mol,188.8 ± 3.9 J/K/mol,193.9 ± 3.8 J/K/mol,201.3 ± 4 J/K/mol,209 ± 3.9 J/K/mol,224.6 ± 4.2 J/K/mol,245.1 ± 4.3 J/K/mol,–,–,–,–,–,–,O=C[C@H](O)[C@H](O)[C@H](O)CO [D-ribose]
